Measured values published in PubChem BioAssay (NCI).
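Step 1: Grow cells in 96-well plates. Step 2: Expose to compound for 48 hours at 5 concentrations. Step 3: Interpolate endpoints linearly; if unreached, use highest concentration. GI50 marks 50% less growth. The concentration for full growth arrest is given as TGI.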

Legend:
Assay in all cases: DTP human tumour cell line panel, 48 h
HCT-15 colon = tested on: HCT-15 colon
LOX IMVI melanoma = tested on: LOX IMVI melanoma
NCI-H460 lung = tested on: NCI-H460 lung
OVCAR-4 ovarian = tested on: OVCAR-4 ovarian
RPMI-8226 leukemia = tested on: RPMI-8226 leukemia
SK-MEL-5 melanoma = tested on: SK-MEL-5 melanoma
SK-OV-3 ovarian = tested on: SK-OV-3 ovarian
SW-620 colon = tested on: SW-620 colon
T-47D breast = tested on: T-47D breast
TK-10 renal = tested on: TK-10 renal

SMILES	TGI (HCT-15 colon) [µM]	TGI (LOX IMVI melanoma) [µM]	TGI (NCI-H460 lung) [µM]	TGI (OVCAR-4 ovarian) [µM]	TGI (RPMI-8226 leukemia) [µM]	TGI (SK-MEL-5 melanoma) [µM]	TGI (SK-OV-3 ovarian) [µM]	TGI (SW-620 colon) [µM]	TGI (T-47D breast) [µM]	TGI (TK-10 renal) [µM]	GI50 (T-47D breast) [µM]	GI50 (TK-10 renal) [µM]
CCOC(=O)C1(C(=O)OCC)CCCN1C(=O)[C@H](CNC(=O)OC(C)(C)C)NC(=O)OCc1ccccc1	> 100	> 100	> 100	> 100	> 100	> 100	> 100	> 100	> 100	> 100		
c1ccc(C2=Nn3c(CCCCCCCCc4nnc5n4N=C(c4ccccc4)CS5)nnc3SC2)cc1	> 100	> 100	> 100	> 100	> 100	> 100	85.6	> 100	> 100	79		
Cc1cc2c(nn1)-c1ccccc1C2=O	> 10	> 10	> 10	> 10	> 10	> 10	> 10	> 10	> 10	> 10		
CC12CC1C(c1cccc([N+](=O)[O-])c1)(c1cccc([N+](=O)[O-])c1)N=N2 (configuration not stated)	44	27.8	> 100	80.3	35.9	> 100	> 100	> 100	> 100	> 100		
C=C(C)[C@@]1(O[Si](C)(C)C)CCCC[C@@H]1CC(Sc1ccccc1)Sc1ccccc1	28.6	37.2	29.6	26.2	49.3	34.8	39.7	30.2	18.8	29		
CC1=C[C@@H](C)C[C@]2(C)CC[C@H](O2)[C@]23CC[C@](C(=O)O)(C[C@H](O2)[C@@H]2O[C@@](C)(CC2=O)[C@@H](O)[C@H]2CC[C@@]4(CCC[C@@H](O4)[C@H](C)C(=O)O[C@H]4C[C@H]([C@]5(O)OCC[C@H](C)[C@@H]5O)O[C@H]4C=C1)O2)O3	> 10	> 10	> 10	> 10	> 10	> 10	> 10	> 10	> 10	> 10		
O/C(=C\c1nc2ccccc2nc1NC12CC3CC(CC(C3)C1)C2)c1ccc(Br)cc1	> 10	> 10	> 10	> 10	> 10	> 10	> 10	> 10	> 10	> 10		
COc1ccc(N=C2C(=S)N(c3ccc(OC)cc3)/C(=N/S(=O)(=O)c3ccccc3)N2c2ccccc2)cc1	23.5	16.9	> 73.2	22.4	> 100	11.1	> 55.4	16.3	7.6	28.3		
COc1ccc(N=Nc2c3c(c(O)c4ccccc24)CCC(C)(C)O3)cc1	28.9	29.9	29.8	50.4	98.1	24.9	> 100	> 100	25.2	65.8		
CCCCC/C(C=O)=C\c1ccccc1	> 100	> 100	> 100	> 100	> 100	> 100	> 100	> 100	> 100	> 100		
COc1cc([C@@H]2c3cc4c(cc3[C@@H](c3c(O)cc(O)c5c3O[C@H](c3ccc(O)c(O)c3)[C@@H](O)C5)[C@H]3COC(=O)[C@H]23)OCO4)cc(OC)c1O	> 100	> 100	> 100	> 100	> 100	> 100	> 100	> 100	> 100	> 100		
O=C(c1ccccc1)N1C(=S)N=C(Nc2ccccc2)C1=Nc1ccccc1	> 100	> 100	> 100	> 100	> 100	> 100	> 100	> 100	> 100	> 100		
COC(=O)[C@H](C)NC(=O)[C@H](CSC)N1C(=O)N[C@@H](C(C)C)C1=O	> 100	> 100	> 100	> 100	> 100	> 100	> 100	> 100	> 100	> 100		
COC(=O)C1=C(C)NC(C)=C([N+](=O)[O-])C1c1cccc(N=O)c1 (configuration not stated)	29.1	30	31.1	24.7	> 100	29.6	46.6	13.3	37.3	25.4		
CC(C)(C)c1ccc(OCC(=O)O)c(Cl)c1	> 100	> 100	> 100	> 100	> 100	> 100	> 100	> 100	> 100	> 100		
O=C1CCCc2cc3c(cc21)CC1(C3)Cc2ccc3c(c2C1)C(=O)CCC3 (configuration not stated)	> 100	> 100	> 100	> 100	50.8	7.66	> 100	> 100	> 100	> 100		
COc1cc(CC(C)N)ccc1O (configuration not stated)	> 100	> 100	> 100	> 100	> 100	> 100	> 100	> 100	> 100	> 100		
O=C(O)c1c2c(cc3c1CC1(Cc4ccccc4C1=O)C3)CCC2 (configuration not stated)	> 100	> 89.1	> 100	> 100	52.3	> 65	> 100	> 100	> 90.7	> 100		
Cc1c2ccncc2c(C)c2c1[nH]c1ccccc12	2.73	4.2	1.32	2.66	3.11	2.01	4.44	2.07	0.509	2.6	0.173	0.79
O=C1c2cccc(NCCNCCO)c2C(=O)c2cccc(NCCNCCO)c21	19	1.65	7.43	2.49	> 32.3	3.39	8.45	11	4.26	23.2		
N#CC(=N)c1ncn(-c2ccccc2N)c1N	> 100	> 100	> 100	> 100	> 100	> 100	> 100	> 100	> 100	> 100		
